Source: patent publication US20060211755A1, “3-oxo-1, 3-dihydro-indazole-2-carboxylic acid amide derivatives as phospholipase inhibitors” (Eli Lilly and Company Patent Division, priority 2003, published 2006)

biological target: T1, Recombinant Hepatic Lipase (Homo sapiens, UniProt P11150); assay: Hepatic Lipase Phospholipase Assay; format: biochemical; conditions: ThioPEG substrate, DTNB, 37° C., 10 min preincubation; read-out: Hepatic Lipase Inhibition IC50
T1 sequence (P11150 23-499): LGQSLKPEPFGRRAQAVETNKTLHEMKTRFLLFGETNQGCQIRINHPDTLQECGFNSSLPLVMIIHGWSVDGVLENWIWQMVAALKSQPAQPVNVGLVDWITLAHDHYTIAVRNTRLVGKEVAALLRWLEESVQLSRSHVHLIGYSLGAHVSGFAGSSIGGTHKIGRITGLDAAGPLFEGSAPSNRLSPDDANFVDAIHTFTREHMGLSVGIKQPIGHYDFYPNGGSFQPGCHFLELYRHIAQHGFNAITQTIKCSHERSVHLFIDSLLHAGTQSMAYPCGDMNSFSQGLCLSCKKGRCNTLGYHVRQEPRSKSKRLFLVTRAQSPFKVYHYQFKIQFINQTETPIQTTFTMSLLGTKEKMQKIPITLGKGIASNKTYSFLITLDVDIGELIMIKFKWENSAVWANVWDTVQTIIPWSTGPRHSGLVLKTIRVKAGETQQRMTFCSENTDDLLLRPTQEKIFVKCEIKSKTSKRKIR
Protocol: Hepatic Lipase Phospholipase Assay
Efficacy was determined by testing various compounds of the invention in a hepatic lipase assay discussed below, and disclosed in U.S. patent application Ser. No. 09/609,871 filed Jul. 3, 2000 incorporated herein by reference in its entirety for U.S. Patent office purposes.
• Substrate Buffer A: 100 mM Hepes, pH 8.3 at 37° C. • Substrate Buffer B: 100 mM Hepes, pH 8.3 at 37° C. with 6.83 mM Triton X100 • ThioPEG: Molecular wt. of 540 • Recombinant Hepatic Lipase • Thiophospholipid: about 0.42 mM thiophospholipid in chloroform • DTNB Solution: about […] DTNB in DMSO (dimethyl sulfoxide) Hepes Buffer A
For Hepes Buffer A, there is 2.4 g Hepes/100 mL water. Therefore 36 grams of Hepes is dissolved in 1500 mL of water. The mix solution's pH is adjusted to pH 8.3 at 37° C. and brought up to 1500 mL with water. 500 mL of Buffer A is retained for the Protein Buffer.
To the remaining 1000 mL of Hepes Buffer A, 4.49 g of Triton X-100 is added and then the combination mixed on a stir plate. It is optimal that stock Buffer A not be too cold or Triton X-100 will take a long time to go into solution
For 0.42 mM substrate stock, use 0.227 mg of thioPEG/mL of Substrate Buffer B. Approximately 20 mg of sn-1 thiol substituted. Phosphatidyl Ethylene Glycol (see Examples for preparation method) is weighed into a vial, such as a scintillation vial. Enough chloroform should be added to make a 2.043 mg/mL solution. Sonicate the solution briefly until well dissolved. Next, pipette 1 mL of chloroform/substrate solution into each scintillation vial. This should give enough substrate for one full 96 well plate. Each vial is dried with nitrogen until solvent removed, swirling each vial simultaneously such that a thin film of substrate will be easily reconstituted in each buffer. Each vial is then frozen.
Daily stock preparation is performed for 9 mL of substrate (one microtiter plate). On the day of the assay, the substrate vial is removed from the freezer and combined with 9 mL of pre-warmed (37° C.) substrate buffer (the final concentration is 0.227 mg/mL). Place the buffer in a 37° C. water bath. Sonicate for 5 minutes or vortex until solution is clear before use.
The enzyme is stored at −80° C. in 100 or 50 μL portions. A 0.406 mg/mL recombinant hepatic lipase stock requires a 50-fold dilution. Therefore, to a 50 μL or 100 μL enzyme aliquot, 2450 μL or 4900 μL, respectively, of substrate Buffer A (protein buffer) should be added. The enzyme should then be stored on ice until ready to use. The protein concentration of enzyme is about 0.406 mg/mL.
To make a 20 mg/mL stock solution, 2-3 mg of DTNB is weighed and then mixed with an appropriate amount of 100% DMSO (dimethyl sulfoxide) to make the desired concentration. This mixture is sonicated for five minutes.
The above solution should be diluted 10 fold with substrate Buffer B (concentration now 2 mg/mL). Then to the thioPEG substrate solution, add 60 μl of dilute DTNB per mL of thioPEG substrate solution. Thus for 9 mL of substrate, 540 microliters of dilute DTNB (final concentration in substrate solution=0.11 mg/mL).
The test compound is dissolved in pure DMSO at […]. As shown below in Table 2, assay concentrations are 10, 1, 0.1, 0.33, 0.011, 0.0037, 0.0012 and 0.00041 μM.
Using a spectrometer, DTNB is used as a thiol coloring reagent with an incubator temperature of 37° C. Substrate Buffer B is placed in a 37° C. water bath to pre-warm. […]

IC50 [nM] | Compound
368 ± 15 | CCCCNC(=O)n1[nH]c2ccccc2c1=O
19 ± 0.4 | CCCCNC(=O)n1c(=O)c2ccccc2n1C
67.2 ± 3.2 | CCCCCNC(=O)n1[nH]c2ccccc2c1=O [drawing 15]

Compound | IC50 [nM]
CCCCCNC(=O)n1c(=O)c2ccccc2n1CCC | 59.2 ± 1.1
CCCCCNC(=O)n1c(=O)c2ccccc2n1CCc1ccccc1 | 97.1 ± 1

system: not given; assay: not given; conditions: not given

melting point [°C] | Compound
> 250 | CCc1cccc(C)c1CNC(=O)n1[nH]c2c(C(=O)O)cccc2c1=O [Example 64, 2-(2-Ethyl-6-methyl-benzylcarbamoyl)-3-oxo-2,3-dihydro-1H-indazole-7-carboxylic acid]
173 to 175 | CCCCc1ccc(CNC(=O)n2[nH]c3cccc(C(=O)O)c3c2=O)c(C)c1 [Example 68, 2-(4-Butyl-2-methyl-benzylcarbamoyl)-3-oxo-2,3-dihydro-1H-indazole-4-carboxylic acid]
> 250 | CCc1cccc(CC)c1CNC(=O)n1[nH]c2cccc(C(=O)O)c2c1=O [Example 69, 2-(2,6-Diethyl-benzylcarbamoyl)-3-oxo-2,3-dihydro-1H-indazole-4-carboxylic acid]
> 250 | CCc1cccc(CC)c1CNC(=O)n1[nH]c2c(C(=O)O)cccc2c1=O [Example 70, 2-(2,6-Diethyl-benzylcarbamoyl)-3-oxo-2,3-dihydro-1H-indazole-7-carboxylic acid]
> 250 | CC(C)c1cccc(C(C)C)c1CNC(=O)n1[nH]c2c(C(=O)O)cccc2c1=O [Example 72, 2-(2,6-Diisopropyl-benzylcarbamoyl)-3-oxo-2,3-dihydro-1H-indazole-7-carboxylic acid]
> 250 | O=C(O)c1cccc2[nH]n(C(=O)NCCCCc3ccccc3)c(=O)c12 [Example 75, 3-Oxo-2-(4-phenyl-butylcarbamoyl)-2,3-dihydro-1H-indazole-4-carboxylic acid]
196 to 198 | O=C(O)c1cccc2[nH]n(C(=O)NCCCCC3CCCCC3)c(=O)c12 [Example 76, 2-(4-Cyclohexyl-butylcarbamoyl)-3-oxo-2,3-dihydro-1H-indazole-4-carboxylic acid]
> 250 | CCCCCCNC(=O)n1[nH]c2cccc(C(=O)O)c2c1=O [Example 78, 2-Hexylcarbamoyl-3-oxo-2,3-dihydro-1H-indazole-4-carboxylic acid]
> 250 | CCc1cccc(C)c1CNC(=O)n1c(=O)c2cccc(C(=O)O)c2n1C [Example 79, 2-(2-Ethyl-6-methyl-benzylcarbamoyl)-1-methyl-3-oxo-2,3-dihydro-1H-indazole-7-carboxylic acid]
> 250 | CCc1cccc(C)c1CNC(=O)n1c(=O)c2cccc(C(=O)O)c2n1CC [Example 80, 1-Ethyl-2-(2-ethyl-6-methyl-benzylcarbamoyl)-3-oxo-2,3-dihydro-1H-indazole-7-carboxylic acid]
> 250 | CCCn1c2c(C(=O)O)cccc2c(=O)n1C(=O)NCc1c(C)cccc1CC [Example 81, 2-(2-Ethyl-6-methyl-benzylcarbamoyl)-3-oxo-1-propyl-2,3-dihydro-1H-indazole-7-carboxylic acid]
172 to 174 | CCc1cccc(C)c1CNC(=O)n1c(=O)c2cccc(C(=O)O)c2n1CC(=O)O [Example 82, 1-Carboxymethyl-2-(2-ethyl-6-methyl-benzylcarbamoyl)-3-oxo-2,3-dihydro-1H-indazole-7-carboxylic acid]
220 to 222 | CCc1cccc(C)c1CNC(=O)n1c(=O)c2cccc(C(=O)O)c2n1CC(=O)OC [Example 83, 2-(2-Ethyl-6-methyl-benzylcarbamoyl)-1-methoxycarbonylmethyl-3-oxo-2,3-dihydro-1H-indazole-7-carboxylic acid]
> 250 | Cc1cccc(C(C)(C)C)c1CNC(=O)n1c(=O)c2cccc(C(=O)O)c2n1C [Example 97, 2-(2-tert-Butyl-6-methyl-benzylcarbamoyl)-1-methyl-3-oxo-2,3-dihydro-1H-indazole-7-carboxylic acid]
> 250 | CCc1cccc(CC)c1CNC(=O)n1c(=O)c2cccc(C(=O)O)c2n1C [Example 98, 2-(2,6-Diethyl-benzylcarbamoyl)-1-methyl-3-oxo-2,3-dihydro-1H-indazole-7-carboxylic acid]
63 to 65 | CCCCCCNC(=O)n1[nH]c2cccc(C(=O)OC)c2c1=O [Example 99, 2-Hexylcarbamoyl-3-oxo-2,3-dihydro-1H-indazole4-carboxylic acid methyl ester]
67 to 69 | C=CCOC(=O)c1cccc2[nH]n(C(=O)NCCCCCC)c(=O)c12 [Example 100, 2-Hexylcarbamoyl-3-oxo-2,3-dihydro-1H-indazole-4-carboxylic acid allyl ester]
